Results published in US20140348819A1, “Methods of Treating Cancer” (Dana-Farber Cancer Institute, Inc., priority 2011, published 2014).

System: six V600E BRAF melanoma cell lines
Assay: Screening of recombinant RTK ligands for ability to confer resistance to BRAFi (PLX4720) or MEKi (PD184352) (Table 4)
Type: cell-based, human
Parameters: ability of recombinant RTK ligand to confer resistance / ability of recombinant RTK ligand to confer resistance (screening value): scale not given here
Method in brief: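 Resistance to BRAFi (PLX4720) or MEKi (PD184352) was tested in six V600E BRAF melanoma lines given one of 22 recombinant RTK ligands. For a subset of RTKs, activation was checked by high-throughput tyrosine kinase phosphorylation profiling and western blot.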

With IGF-I as the substance, how does the “ability of recombinant RTK ligand to confer resistance” value (from here on “ability of recombinant RTK ligand”) (A2058, PD184352 - 1 uM, ligand 0.4 ng/ml) read?
The value was 1.10.

What about the “ability of recombinant RTK ligand” value (A2058, PD184352 - 1 uM, ligand 1.6 ng/ml) of the same substance?
The value was 1.02.

What about the “ability of recombinant RTK ligand” value (A2058, PD184352 - 1 uM, ligand 6.25 ng/ml) of the same substance?
Its value is 1.03.

What about the “ability of recombinant RTK ligand” value (A2058, PD184352 - 1 uM, ligand 25 ng/ml) of the same substance?
Its value is 1.08.

And the “ability of recombinant RTK ligand” value (A2058, PD184352 - 1 uM, ligand 100 ng/ml)?
The value was 1.02.

What about the “ability of recombinant RTK ligand” value (A2058, PLX4720 - 2 uM, ligand 0.4 ng/ml) of the same substance?
Its value is 1.05.

And the “ability of recombinant RTK ligand” value (A2058, PLX4720 - 2 uM, ligand 1.6 ng/ml)?
Its value is 0.95.

And the “ability of recombinant RTK ligand” value (A2058, PLX4720 - 2 uM, ligand 6.25 ng/ml)?
The value was 0.97.

And the “ability of recombinant RTK ligand” value (A2058, PLX4720 - 2 uM, ligand 25 ng/ml)?
The value was 1.04.

What about the “ability of recombinant RTK ligand” value (A2058, PLX4720 - 2 uM, ligand 100 ng/ml) of the same substance?
Its value is 0.99.

What about the “ability of recombinant RTK ligand” value (C32, PD184352 - 1 uM, ligand 0.4 ng/ml) of the same substance?
Its value is 1.05.

And the “ability of recombinant RTK ligand” value (C32, PD184352 - 1 uM, ligand 1.6 ng/ml)?
Its value is 1.04.

What about the “ability of recombinant RTK ligand” value (C32, PD184352 - 1 uM, ligand 6.25 ng/ml) of the same substance?
The value was 1.21.

And the “ability of recombinant RTK ligand” value (C32, PD184352 - 1 uM, ligand 25 ng/ml)?
The value was 1.16.

And the “ability of recombinant RTK ligand” value (C32, PD184352 - 1 uM, ligand 100 ng/ml)?
The value was 1.21.

What about the “ability of recombinant RTK ligand” value (C32, PLX4720 - 2 uM, ligand 0.4 ng/ml) of the same substance?
The value was 1.08.

What about the “ability of recombinant RTK ligand” value (C32, PLX4720 - 2 uM, ligand 1.6 ng/ml) of the same substance?
Its value is 1.12.

And the “ability of recombinant RTK ligand” value (C32, PLX4720 - 2 uM, ligand 6.25 ng/ml)?
Its value is 1.17.

What about the “ability of recombinant RTK ligand” value (C32, PLX4720 - 2 uM, ligand 25 ng/ml) of the same substance?
Its value is 1.15.

And the “ability of recombinant RTK ligand” value (C32, PLX4720 - 2 uM, ligand 100 ng/ml)?
The value was 1.07.

And the “ability of recombinant RTK ligand” value (Colo 829, PD184352 - 1 uM, ligand 0.4 ng/ml)?
Its value is 1.06.

And the “ability of recombinant RTK ligand” value (Colo 829, PD184352 - 1 uM, ligand 1.6 ng/ml)?
Its value is 0.97.

And the “ability of recombinant RTK ligand” value (Colo 829, PD184352 - 1 uM, ligand 6.25 ng/ml)?
The value was 1.03.

What about the “ability of recombinant RTK ligand” value (Colo 829, PD184352 - 1 uM, ligand 25 ng/ml) of the same substance?
The value was 1.01.

What about the “ability of recombinant RTK ligand” value (Colo 829, PD184352 - 1 uM, ligand 100 ng/ml) of the same substance?
The value was 1.08.

And the “ability of recombinant RTK ligand” value (Colo 829, PLX4720 - 2 uM, ligand 0.4 ng/ml)?
The value was 1.00.

And the “ability of recombinant RTK ligand” value (Colo 829, PLX4720 - 2 uM, ligand 1.6 ng/ml)?
Its value is 0.99.

And the “ability of recombinant RTK ligand” value (Colo 829, PLX4720 - 2 uM, ligand 6.25 ng/ml)?
Its value is 1.06.

What about the “ability of recombinant RTK ligand” value (Colo 829, PLX4720 - 2 uM, ligand 25 ng/ml) of the same substance?
Its value is 1.03.

And the “ability of recombinant RTK ligand” value (Colo 829, PLX4720 - 2 uM, ligand 100 ng/ml)?
Its value is 1.07.

What about the “ability of recombinant RTK ligand” value (G-361, PD184352 - 1 uM, ligand 0.4 ng/ml) of the same substance?
Its value is 1.06.

And the “ability of recombinant RTK ligand” value (G-361, PD184352 - 1 uM, ligand 1.6 ng/ml)?
Its value is 1.00.

And the “ability of recombinant RTK ligand” value (G-361, PD184352 - 1 uM, ligand 6.25 ng/ml)?
Its value is 1.17.

What about the “ability of recombinant RTK ligand” value (G-361, PD184352 - 1 uM, ligand 25 ng/ml) of the same substance?
The value was 0.99.

What about the “ability of recombinant RTK ligand” value (G-361, PD184352 - 1 uM, ligand 100 ng/ml) of the same substance?
Its value is 0.95.

What about the “ability of recombinant RTK ligand” value (G-361, PLX4720 - 2 uM, ligand 0.4 ng/ml) of the same substance?
The value was 1.03.

And the “ability of recombinant RTK ligand” value (G-361, PLX4720 - 2 uM, ligand 1.6 ng/ml)?
Its value is 1.05.

What about the “ability of recombinant RTK ligand” value (G-361, PLX4720 - 2 uM, ligand 6.25 ng/ml) of the same substance?
The value was 1.11.

And the “ability of recombinant RTK ligand” value (G-361, PLX4720 - 2 uM, ligand 25 ng/ml)?
The value was 0.99.

And the “ability of recombinant RTK ligand” value (G-361, PLX4720 - 2 uM, ligand 100 ng/ml)?
The value was 0.87.

What about the “ability of recombinant RTK ligand” value (SK-MEL-5, PD184352 - 1 uM, ligand 0.4 ng/ml) of the same substance?
Its value is 1.01.

And the “ability of recombinant RTK ligand” value (SK-MEL-5, PD184352 - 1 uM, ligand 1.6 ng/ml)?
Its value is 1.01.

And the “ability of recombinant RTK ligand” value (SK-MEL-5, PD184352 - 1 uM, ligand 6.25 ng/ml)?
The value was 1.08.

What about the “ability of recombinant RTK ligand” value (SK-MEL-5, PD184352 - 1 uM, ligand 25 ng/ml) of the same substance?
Its value is 1.06.

And the “ability of recombinant RTK ligand” value (SK-MEL-5, PD184352 - 1 uM, ligand 100 ng/ml)?
The value was 1.29.

What about the “ability of recombinant RTK ligand” value (SK-MEL-5, PLX4720 - 2 uM, ligand 0.4 ng/ml) of the same substance?
Its value is 1.01.

What about the “ability of recombinant RTK ligand” value (SK-MEL-5, PLX4720 - 2 uM, ligand 1.6 ng/ml) of the same substance?
Its value is 1.03.

And the “ability of recombinant RTK ligand” value (SK-MEL-5, PLX4720 - 2 uM, ligand 6.25 ng/ml)?
The value was 1.19.

What about the “ability of recombinant RTK ligand” value (SK-MEL-5, PLX4720 - 2 uM, ligand 25 ng/ml) of the same substance?
Its value is 1.25.

And the “ability of recombinant RTK ligand” value (SK-MEL-5, PLX4720 - 2 uM, ligand 100 ng/ml)?
Its value is 1.12.

What about the “ability of recombinant RTK ligand” value (SK-MEL-28, PD184352 - 1 uM, ligand 0.4 ng/ml) of the same substance?
Its value is 1.10.

And the “ability of recombinant RTK ligand” value (SK-MEL-28, PD184352 - 1 uM, ligand 1.6 ng/ml)?
The value was 1.06.

And the “ability of recombinant RTK ligand” value (SK-MEL-28, PD184352 - 1 uM, ligand 6.25 ng/ml)?
The value was 0.98.

And the “ability of recombinant RTK ligand” value (SK-MEL-28, PD184352 - 1 uM, ligand 25 ng/ml)?
Its value is 1.06.

And the “ability of recombinant RTK ligand” value (SK-MEL-28, PD184352 - 1 uM, ligand 100 ng/ml)?
The value was 1.12.

What about the “ability of recombinant RTK ligand” value (SK-MEL-28, PLX4720 - 2 uM, ligand 0.4 ng/ml) of the same substance?
The value was 1.24.

And the “ability of recombinant RTK ligand” value (SK-MEL-28, PLX4720 - 2 uM, ligand 1.6 ng/ml)?
Its value is 1.08.

And the “ability of recombinant RTK ligand” value (SK-MEL-28, PLX4720 - 2 uM, ligand 6.25 ng/ml)?
Its value is 1.09.

What about the “ability of recombinant RTK ligand” value (SK-MEL-28, PLX4720 - 2 uM, ligand 25 ng/ml) of the same substance?
Its value is 1.02.

What about the “ability of recombinant RTK ligand” value (SK-MEL-28, PLX4720 - 2 uM, ligand 100 ng/ml) of the same substance?
The value was 1.01.
